# Experimental data: ChEMBL document CHEMBL3885861, “Open TG-GATES”
# Organism: Rattus norvegicus
# Test: Open TG-GATES - Regimen: Single
# Type: toxicity, organism-based, Sprague-Dawley
# Parameters: regimen Single, gender Male, age 6 weeks
# Details: in vivo, po, 1000 mg/kg, route gavage, dose level Middle; for APTT / Bas / Eos / Fbg / Hb / Ht / Lym / MCH / MCHC / MCV / Mono / Neu / PT / Plat / RBC / Ret / WBC: tissue Blood; for KIDNEY_L / KIDNEY_R / KIDNEY_TOTAL: tissue Kidney; for LIVER: tissue Liver; for A/G / ALP / ALT / AST / BUN / CRE / Ca / Cl / DBIL / GLC / IP / K / LDH / Na / PL / RALB / TBIL / TC / TG / TP / gamma-GTP: tissue Plasma
smiles,measurement,setting,value
Clc1c(Cl)c(Cl)c(Cl)c(Cl)c1Cl [PERCHLOROBENZENE],TERMINAL_BW,3 h,222.7 g
same,APTT,3 h,18.7 s
same,Bas,3 h,0%
same,Eos,3 h,1%
same,Fbg,3 h,227 mg/dL
same,Hb,3 h,13.3 g/dL
same,Ht,3 h,38%
same,Lym,3 h,78%
same,MCH,3 h,21.8 pg
same,MCHC,3 h,35%
same,MCV,3 h,62.1 fL
same,Mono,3 h,3.2%
same,Neu,3 h,16.4%
same,PT,3 h,11.8 s
same,Plat,3 h,122.1 x10_4/uL
same,RBC,3 h,612 x10_4/ul
same,Ret,3 h,7.6%
same,WBC,3 h,85.3 x10_2/uL
same,KIDNEY_L,3 h,1 g
same,KIDNEY_R,3 h,1 g
same,KIDNEY_TOTAL,3 h,1.9 g
same,LIVER,3 h,10.4 g
same,A/G,3 h,1.7
same,ALP,3 h,992 IU/L
same,ALT,3 h,35.2 IU/L
same,AST,3 h,79.2 IU/L
same,BUN,3 h,11.6 mg/dL
same,CRE,3 h,0.4 mg/dL
same,Ca,3 h,10.9 mg/dL
same,Cl,3 h,104 meq/L
same,DBIL,3 h,0.066 mg/dL
same,GLC,3 h,198.4 mg/dL
same,IP,3 h,8.8 mg/dL
same,K,3 h,3.8 meq/L
same,LDH,3 h,214 IU/L
same,Na,3 h,141.6 meq/L
same,PL,3 h,143.8 mg/dL
same,RALB,3 h,3.5 g/dL
same,TBIL,3 h,0.1 mg/dL
same,TC,3 h,68.6 mg/dL
same,TG,3 h,94.8 mg/dL
same,TP,3 h,5.5 g/dL
same,gamma-GTP,3 h,1 IU/L
same,TERMINAL_BW,6 h,217.7 g
same,APTT,6 h,18.9 s
same,Bas,6 h,0.2%
same,Eos,6 h,1%
same,Fbg,6 h,223.2 mg/dL
same,Hb,6 h,13.4 g/dL
same,Ht,6 h,38.5%
same,Lym,6 h,71.2%
same,MCH,6 h,21.6 pg
same,MCHC,6 h,34.9%
same,MCV,6 h,62.1 fL
same,Mono,6 h,3.2%
same,Neu,6 h,23.4%
same,PT,6 h,12.2 s
same,Plat,6 h,132.8 x10_4/uL
same,RBC,6 h,620.2 x10_4/ul
same,Ret,6 h,7.3%
same,WBC,6 h,100.6 x10_2/uL
same,KIDNEY_L,6 h,1 g
same,KIDNEY_R,6 h,0.9 g
same,KIDNEY_TOTAL,6 h,1.9 g
same,LIVER,6 h,9 g
same,A/G,6 h,1.7
same,ALP,6 h,1078.8 IU/L
same,ALT,6 h,33.4 IU/L
same,AST,6 h,79 IU/L
same,BUN,6 h,10 mg/dL
same,CRE,6 h,0.4 mg/dL
same,Ca,6 h,10.5 mg/dL
same,Cl,6 h,103.4 meq/L
same,DBIL,6 h,0.064 mg/dL
same,GLC,6 h,186 mg/dL
same,IP,6 h,9 mg/dL
same,K,6 h,4.1 meq/L
same,LDH,6 h,224 IU/L
same,Na,6 h,141.4 meq/L
same,PL,6 h,127.4 mg/dL
same,RALB,6 h,3.4 g/dL
same,TBIL,6 h,0.1 mg/dL
same,TC,6 h,69.4 mg/dL
same,TG,6 h,55.2 mg/dL
same,TP,6 h,5.4 g/dL
same,gamma-GTP,6 h,1 IU/L
same,TERMINAL_BW,9 h,216.4 g
same,APTT,9 h,19.1 s
same,Bas,9 h,0.2%
same,Eos,9 h,1%
same,Fbg,9 h,220.6 mg/dL
same,Hb,9 h,13.5 g/dL
same,Ht,9 h,38.5%
same,Lym,9 h,72%
same,MCH,9 h,21.2 pg
same,MCHC,9 h,34.9%
same,MCV,9 h,60.6 fL
same,Mono,9 h,2.8%
same,Neu,9 h,23%
same,PT,9 h,12.3 s
same,Plat,9 h,124.7 x10_4/uL
same,RBC,9 h,636 x10_4/ul
same,Ret,9 h,6.9%
same,WBC,9 h,72.6 x10_2/uL
same,KIDNEY_L,9 h,1 g
same,KIDNEY_R,9 h,1 g
same,KIDNEY_TOTAL,9 h,1.9 g
same,LIVER,9 h,8.8 g
same,A/G,9 h,1.6
same,ALP,9 h,926.6 IU/L
same,ALT,9 h,27.4 IU/L
same,AST,9 h,63.4 IU/L
same,BUN,9 h,11.2 mg/dL
same,CRE,9 h,0.3 mg/dL
same,Ca,9 h,10.5 mg/dL
same,Cl,9 h,103.4 meq/L
same,DBIL,9 h,0.058 mg/dL
same,GLC,9 h,201.2 mg/dL
same,IP,9 h,10.4 mg/dL
same,K,9 h,3.8 meq/L
same,LDH,9 h,191.4 IU/L
same,Na,9 h,142 meq/L
same,PL,9 h,121.2 mg/dL
same,RALB,9 h,3.3 g/dL
same,TBIL,9 h,0.1 mg/dL
same,TC,9 h,61 mg/dL
same,TG,9 h,39 mg/dL
same,TP,9 h,5.4 g/dL
same,gamma-GTP,9 h,1.2 IU/L
same,TERMINAL_BW,24 h,230.6 g
same,APTT,24 h,18.3 s
same,Bas,24 h,0.2%
same,Eos,24 h,1%
same,Fbg,24 h,240.8 mg/dL
same,Hb,24 h,13.6 g/dL
same,Ht,24 h,39.3%
same,Lym,24 h,74.2%
same,MCH,24 h,21.3 pg
same,MCHC,24 h,34.5%
same,MCV,24 h,61.6 fL
same,Mono,24 h,3%
same,Neu,24 h,20.6%
same,PT,24 h,11.7 s
same,Plat,24 h,128 x10_4/uL
same,RBC,24 h,637.6 x10_4/ul
same,Ret,24 h,6.5%
same,WBC,24 h,80.8 x10_2/uL
same,KIDNEY_L,24 h,1 g
same,KIDNEY_R,24 h,1 g
same,KIDNEY_TOTAL,24 h,2.1 g
same,LIVER,24 h,11.1 g
same,A/G,24 h,1.5
same,ALP,24 h,901 IU/L
same,ALT,24 h,35.4 IU/L
same,AST,24 h,66.2 IU/L
same,BUN,24 h,14.2 mg/dL
same,CRE,24 h,0.4 mg/dL
same,Ca,24 h,11 mg/dL
same,Cl,24 h,103.4 meq/L
same,DBIL,24 h,0.056 mg/dL
same,GLC,24 h,204.8 mg/dL
same,IP,24 h,6.9 mg/dL
same,K,24 h,3.8 meq/L
same,LDH,24 h,230.6 IU/L
same,Na,24 h,141.4 meq/L
same,PL,24 h,152.8 mg/dL
same,RALB,24 h,3.4 g/dL
same,TBIL,24 h,0.096 mg/dL
same,TC,24 h,80.4 mg/dL
same,TG,24 h,133.6 mg/dL
same,TP,24 h,5.6 g/dL
same,gamma-GTP,24 h,1 IU/L
